Data reported in the supplement of paper PMC10883282.

Legend:
Assay in all cases: relative viability vs DMSO control (72 h) (fraction); higher = more viable cells
A204 = system: A204
In short: (§1)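 A 5 µM positive control and 0.1% DMSO vehicle ran alongside sarcoma cell lines seeded in 384-well plates to reach 80–90% confluence. Serially diluted compound, 2.5 µl from source plates of 10 mM to 0.0002 mM, was added after 24 h, and the plates were held 72 h at 37 °C, 5% CO2. Relative viability was worked out from ATPLite readings as percent growth averaged over up to triplicate wells. The values were rescaled so that 1 is full and 0 is none.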

G401 = system: G401
In short: as §1

HS729 = system: HS729
In short: as §1

KHOS-240S = system: KHOS-240S
In short: as §1

MES-SA = system: MES-SA
In short: as §1

RD = system: RD
In short: as §1

SK-ES-1 = system: SK-ES-1
In short: as §1

SK-LMS-1 = system: SK-LMS-1
In short: as §1

SW1353 = system: SW1353
In short: as §1

SW872 = system: SW872
In short: as §1

SW982 = system: SW982
In short: as §1

VA-ES-BJ = system: VA-ES-BJ
In short: as §1

C#Cc1cccc(Nc2ncnc3cc(OCCOC)c(OCCOC)cc23)c1 [Erlotinib]
Conditions | relative viability
A204, 0.00017 µM | 1.06
A204, 0.00051 µM | 1.13
A204, 0.00152 µM | 1.09
A204, 0.00457 µM | 1.09
A204, 0.01372 µM | 1.07
A204, 0.04115 µM | 1.1
A204, 0.1235 µM | 1.09
A204, 0.3704 µM | 1.09
A204, 1.111 µM | 1.01
A204, 3.333 µM | 0.822
A204, 10 µM | 0.546
G401, 0.00017 µM | 1.04
G401, 0.00051 µM | 1.05
G401, 0.00152 µM | 1.02
G401, 0.00457 µM | 1.04
G401, 0.01372 µM | 1.01
G401, 0.04115 µM | 1.03
G401, 0.1235 µM | 1.018
G401, 0.3704 µM | 1.05
G401, 1.111 µM | 1.016
G401, 3.333 µM | 0.9684
G401, 10 µM | 0.787
HS729, 0.00017 µM | 1.03
HS729, 0.00051 µM | 0.978
HS729, 0.00152 µM | 0.976
HS729, 0.00457 µM | 0.961
HS729, 0.01372 µM | 1.01
HS729, 0.04115 µM | 1
HS729, 0.1235 µM | 0.995
HS729, 0.3704 µM | 1.01
HS729, 1.111 µM | 0.92
HS729, 3.333 µM | 0.781
HS729, 10 µM | 0.714
KHOS-240S, 0.00017 µM | 1.06
KHOS-240S, 0.00051 µM | 1.07
KHOS-240S, 0.00152 µM | 1.05
KHOS-240S, 0.00457 µM | 1.08
KHOS-240S, 0.01372 µM | 1.06
KHOS-240S, 0.04115 µM | 1.07
KHOS-240S, 0.1235 µM | 1.087
KHOS-240S, 0.3704 µM | 1.08
KHOS-240S, 1.111 µM | 1.062
KHOS-240S, 3.333 µM | 1.06
KHOS-240S, 10 µM | 0.949
MES-SA, 0.00017 µM | 0.95
MES-SA, 0.00051 µM | 0.973
MES-SA, 0.00152 µM | 0.979
MES-SA, 0.00457 µM | 0.945
MES-SA, 0.01372 µM | 0.96
MES-SA, 0.04115 µM | 0.972
MES-SA, 0.1235 µM | 0.959
MES-SA, 0.3704 µM | 0.948
MES-SA, 1.111 µM | 0.914
MES-SA, 3.333 µM | 0.687
MES-SA, 10 µM | 0.458
RD, 0.00017 µM | 1.08
RD, 0.00051 µM | 1.09
RD, 0.00152 µM | 1.09
RD, 0.00457 µM | 1.08
RD, 0.01372 µM | 1.07
RD, 0.04115 µM | 1.09
RD, 0.1235 µM | 1.09
RD, 0.3704 µM | 1.1
RD, 1.111 µM | 1.12
RD, 3.333 µM | 1.04
RD, 10 µM | 0.786
SK-ES-1, 0.00017 µM | 1.048
SK-ES-1, 0.00051 µM | 1.04
SK-ES-1, 0.00152 µM | 1.08
SK-ES-1, 0.00457 µM | 1.07
SK-ES-1, 0.01372 µM | 1.09
SK-ES-1, 0.04115 µM | 1.07
SK-ES-1, 0.1235 µM | 1.05
SK-ES-1, 0.3704 µM | 1.03
SK-ES-1, 1.111 µM | 0.85
SK-ES-1, 3.333 µM | 0.567
SK-ES-1, 10 µM | 0.324
SK-LMS-1, 0.00017 µM | 1.06
SK-LMS-1, 0.00051 µM | 1.06
SK-LMS-1, 0.00152 µM | 1.09
SK-LMS-1, 0.00457 µM | 1.07
SK-LMS-1, 0.01372 µM | 1.09
SK-LMS-1, 0.04115 µM | 1.12
SK-LMS-1, 0.1235 µM | 1.07
SK-LMS-1, 0.3704 µM | 1.11
SK-LMS-1, 1.111 µM | 1.07
SK-LMS-1, 3.333 µM | 0.941
SK-LMS-1, 10 µM | 0.698
SW872, 0.00017 µM | 1.11
SW872, 0.00051 µM | 1.12
SW872, 0.00152 µM | 1.14
SW872, 0.00457 µM | 1.11
SW872, 0.01372 µM | 1.07
SW872, 0.04115 µM | 1.1
SW872, 0.1235 µM | 1.11
SW872, 0.3704 µM | 1.06
SW872, 1.111 µM | 1.04
SW872, 3.333 µM | 0.822
SW872, 10 µM | 0.638
SW982, 0.00017 µM | 1.06
SW982, 0.00051 µM | 1.06
SW982, 0.00152 µM | 1.08
SW982, 0.00457 µM | 1.08
SW982, 0.01372 µM | 1.06
SW982, 0.04115 µM | 1.08
SW982, 0.1235 µM | 1.07
SW982, 0.3704 µM | 1.07
SW982, 1.111 µM | 0.9728
SW982, 3.333 µM | 0.689
SW982, 10 µM | 0.466
SW1353, 0.00017 µM | 1.02
SW1353, 0.00051 µM | 1.03
SW1353, 0.00152 µM | 1.043
SW1353, 0.00457 µM | 1.02
SW1353, 0.01372 µM | 1.04
SW1353, 0.04115 µM | 1.01
SW1353, 0.1235 µM | 0.955
SW1353, 0.3704 µM | 0.928
SW1353, 1.111 µM | 0.889
SW1353, 3.333 µM | 0.812
SW1353, 10 µM | 0.695
VA-ES-BJ, 0.00017 µM | 1.088
VA-ES-BJ, 0.00051 µM | 1.08
VA-ES-BJ, 0.00152 µM | 1.08
VA-ES-BJ, 0.00457 µM | 1.08
VA-ES-BJ, 0.01372 µM | 1.06
VA-ES-BJ, 0.04115 µM | 1.08
VA-ES-BJ, 0.1235 µM | 1.09
VA-ES-BJ, 0.3704 µM | 1.03
VA-ES-BJ, 1.111 µM | 1.01
VA-ES-BJ, 3.333 µM | 0.888
VA-ES-BJ, 10 µM | 0.642
